Patent US20250127777A1, “DUAL INHIBITION OF MDM2 AND EIF2-ALPHA INDUCES CELL DEATH IN MULTIPLE CANCER CELL TYPES” (The Regents of the University of Colorado, A Body Corporate, priority 2022, published 2025)

Key:
ATF3 and ATF4 = assay: Western blot of ATF3 and ATF4 protein; format: cell-based; settings: TPC1 cells; nelfinavir alone
Method: (§1) Protein samples were prepared with cells washed twice with PBS and lysed in modified Laemmli buffer (Laemmli, 1970) (1% w/v SDS, 10% w/v glycerol, 100 mM Tris pH 7.2, protease (complete Mini, Roche) and phosphatase (PhosSTOP, Roche) inhibitors). Following a brief sonication (2.5W, 5 sec) and heat denaturation (90° C., 5 min), total protein concentration in whole cell lysates was measured by a BCA Protein Assay Kit (Pierce, Thermo Fisher Scientific). 20 μg of protein per sample was resolved by SDS-PAGE and transferred onto a 0.45 μm PVDF membrane (0.2 μm for ATF3 detection). Membranes were incubated in blocking buffer (5% fat-free milk in wash buffer—20 mM Tris pH 7.6, 150 mM NaCl, 0.2% Tween 20) for an hour at RT and o/n at 4° C. with the primary antibody diluted in a fresh blocking buffer. Next day membranes were washed three times for 10 min in the wash buffer, incubated with HRP-conjugated secondary antibody for an hour at RT, and washed again three times in the wash buffer. SuperSignal West Pico Plus Chemiluminescence Substrate (Pierce) was used for detection and digital images were acquired using an ImageQuant LAS 4000 (GE Healthcare Life Sciences).

elF2α = assay: Western blot of elF2α phosphorylation; format: cell-based; settings: 10 μM nutlin-3a, 25 μM GSK2830371, 20 μM nelfinavir; multiple cell lines
Method: as §1

diverse cell types = assay: Annexin V-FITC/PI apoptosis assay, elF2α plus MDM2 inhibition; format: cell-based
Method: (§2) TPC1, K1, HCT116, MCF7, SJSA, and HEK293FT cells were cultivated in RPMI (TPC1, SJSA), DMEM (K1, MCF7, HEK293FT), and McCoy's (HCT116) media (Gibco, Thermo Fisher Scientific) supplemented with 10% fetal bovine serum (Peak Serum) and 1% antibiotic-antimycotic mixture (Gibco). Cells were plated a day before the treatment and maintained in a humidified atmosphere with 5% of CO2 at 37° C. Both TPC1 and K1 lines were gifts from Dr. Rebecca Schweppe, University of Colorado Anschutz Medical Campus (CU-AMC). Cell line identity has been verified by short tandem repeats profiling at the Cell Technologies Shared Resource, CU-AMC. Colorectal cancer organoid cultures (CRC172) were obtained from the Enteroid Stem Cell Core facility at CU-AMC.
The fraction of apoptotic cells was determined by Annexin V-FITC/PI assay. Briefly, cells harvested by trypsinization were resuspended in Annexin-V binding buffer (10 mM HEPES pH 7.4, 140 mM NaCl, 2.5 mM CaCl2)). Approximately 2*10^5 cells were labeled with Annexin-V-FITC (Invitrogen) and PI (10 μg/ml, Millipore-Sigma) for 15 minutes in the dark before flow cytometric analysis (Accuri C6, Becton Dickinson). […] An aliquot of approximately 5*10^5 cells per sample was mixed with tetramethylrhodamine, ethyl ester, perchlorate (TMRE, Thermo Fisher, 100 nM final concentration) solution, incubated for 10 minutes in the dark, and analyzed by flow cytometer.

HCT116 xenograft tumors = assay: HCT116 xenograft tumor model; format: in vivo; settings: nude mice, 200 mg/kg nelfinavir and/or 200 mg/kg milademetan
Method: Athymic nude mice (NU/NU) weighting 20 to 30 grams and being 8-12 weeks of age (Charles River Labs) were housed in cages under standard conditions (22° C., 50% relative humidity, 12-h light/dark cycles) and provided with food and water ad libitum. Next, […] exponentially growing HCT116 cells resuspended in 100 μl Matrigel/PBS (5 mg/ml final) were injected subcutaneously into both flanks. Tumors grew for 10-14 days before treatment initiation. Experimental animals were given 200 mg/kg nelfinavir and/or 200 mg/kg Milademetan (Rain Therapeutics) by oral gavage once daily, 5 days a week. Tested compounds were prepared in a mixture of 2% Klucel (hydroxypropyl cellulose), 0.5% Tween 80, and 35% ethanol. Tumor volumes (v) were estimated daily, 5 days a week using caliper measurements and formula v=(I×w^2)/2, where I represents the greatest length of the tumor and w is tumor width in the perpendicular axis. Average volumes of the right and left flank tumors were used for plotting and calculations. Equal ratios of male and female mice were used in treatment groups (5 males and 5 females). All in vivo experiments were approved by the Institutional Animal Care and Use Committee at the CU-AMC (IACUC protocol 00432).
(§3) After indicated treatments, cells were washed with PBS, total RNA was extracted using Trizol substitute (38% Phenol, saturated, pH 4.3, 0.8 M guanidine thiocyanate, 0.4 M ammonium thiocyanate, 0.1 M sodium acetate, pH 5.0, 5% glycerol), and converted to cDNA with High-Capacity cDNA Reverse Transcription Kit (Thermo Fisher). Next, diluted cDNA was used in quantitative PCR reaction using SYBR Select Master Mix for CFX (Thermo Fisher). Detected mRNA levels were normalized to 18s rRNA values.
Tumors fixed in 4% formaldehyde were transferred to 70% ethanol and embedded in paraffin at the Pathology Shared Resource-Research Histology, University of Colorado Anschutz Medical Campus. Three tumors from each experimental group were sectioned, stained with DAPI and Ki67 primary antibody using Akoya Opal technology (Akoya Biosciences), and scanned at six representative regions with Vectra 3.0 (Akoya Biosciences) at the Human Immune Monitoring Shared Resource (University of Colorado Anschutz). Next, InForm image analysis software (Akoya Biosciences) was used for automated identification of nuclei based on the DAPI signal. Ki67 nuclear fluorescence was outputted for all nuclei.

TPC1 and HCT116 = assay: Polysome profiling (polysome/monosome ratio); format: cell-based; settings: 24 hours
Method: TPC1 and HCT116 were plated at 6*104/cm2 on 143 cm2 dishes, cultivated o/n, and treated accordingly. Ten minutes before the harvest cultivation media was supplemented with cycloheximide (CHX) at final concentration of 100 μg/ml. Next, cells were washed twice with ice-cold PBS with 100 μg/ml CHX and lysed in polysome preparation lysis buffer (20 mM HEPES pH 7.4, 15 mM MgCl2, 200 mM NaCl, 1% Triton X-100, 100 μg/ml CHX, 2 mM DTT, and 100U SuperaseIN). Lysates were cleared of debris by centrifugation at 20,000g, 4° C. for 10 minutes. Total nucleic acid content in lysates was measured by absorbance at 260 nm and used for sample concentration normalization. Next, 500 μl of the lysate was loaded on 10-60% sucrose gradients in SW41 tubes in lysis buffer lacking Triton X-100. These gradients were prepared using a BioComp system and chilled to 4° C. before use. Samples were ultracentrifuged at 36,000 rpm for 3 hours and 10 min, at 4° C., then samples were fractionated using a BioComp system, monitoring absorbance at 260 nm while collecting fractions of approximately 0.4 ml each.

caspase 3 = assay: Western blot of caspase 3 cleavage; format: cell-based; settings: TPC1 cells; 20 μM nelfinavir, alone or with 10 μM nutlin-3a
Method: as §1, with “Following” for “Protein samples were prepared with cells washed twice with PBS and lysed in modified Laemmli buffer (Laemmli, 1970) (1% w/v SDS, 10% w/v glycerol, 100 mM Tris pH 7.2, protease (complete Mini, Roche) and phosphatase (PhosSTOP, Roche) inhibitors). Following”

ATF3 and ATF4 mRNA = ATF3 and ATF4 mRNA induction (RNA-seq, Q-RT-PCR); format: cell-based, Human; settings: TPC1, K1, and four other cell lines; 24 hours
Source text: as §3
TPC1 and K1 cells were plated at 2*104/cm2 and treated for 24 hours as indicated. Following the treatment period, cells were washed with ice-cold PBS and lysed in TRI Reagent (Millipore Sigma). Quality of the extracted RNA was assessed by Agilent Bioanalyzer 2100 using RNA 6000 Pico chips (Agilent). Single-end 150 bp sequencing of the poly-A (+)-enriched RNA was carried out on the Illumina HiSeq 4000 platform by the Genomics Core facility at the University of Colorado Anschutz. […]

K1 cells [1] = assay: RNA-seq transcriptome analysis (DESeq2); format: cell-based, Human; settings: for differentially expressed mRNAs versus vehicle: nutlin 10 μM, GSK2830371 25 μM, or both, 24 hours
Method: (§4) TPC1 and K1 cells were plated at 2*104/cm2 and treated for 24 hours as indicated. Following the treatment period, cells were washed with ice-cold PBS and lysed in TRI Reagent (Millipore Sigma). Quality of the extracted RNA was assessed by Agilent Bioanalyzer 2100 using RNA 6000 Pico chips (Agilent). Single-end 150 bp sequencing of the poly-A (+)-enriched RNA was carried out on the Illumina HiSeq 4000 platform by the Genomics Core facility at the University of Colorado Anschutz.
(§5) Quality of the sequencing data was analyzed using FASTQC (version 0.11.2, available at the website www.bioinformatics.babraham.ac.uk/projects/fastqc and presence of common sequencing contaminants was assessed by FastQ Screen (v0.4.4) available at the website www.bioinformatics.babraham.ac.uk/projects/fastq_screen/. Bases with low quality (Q<10) were 3′ end trimmed and reads shorter than 30 nt were discarded using the Fastx toolkit (v0.0.13.2). Reads were aligned to a GRCh37/hg19 Human reference using TopHat2 (v2.0.13,-b2-sensitive-keep-fasta-order-no-coverage-search-max-multihits 10-library-type fr-firststrand) (Kim et al., 2013) with the UCSC hg19 GTF annotation file provided in the iGenomes UCSC hg19 bundle available at the website: support.illumina.com/sequencing/sequencing_software/igenome.html. Aligned reads with MAPQ<10 quality were removed using SAMtools (v0.1.19). Alignments were then sorted by coordinates, and duplicates were identified using Picard (v1.129). Quality assessment of final mapped reads was conducted using RSeQC (v2.6) (Wang et al., 2012). Gene-level counts were obtained using HTSeq (v0.6.1) (Anders et al., 2015) with the following options (-stranded=reverse -minaqual=10-type=exon-idattr=gene_id_mode=intersection-nonempty) using the iGenomes UCSC hg19 GTF annotation file. Differential gene expression was evaluated using DESeq2 (version 1.6.3) (Love et al., 2014) in R (version 3.1.0), using q<0.05 (FDR<5%) and fold-change>1.5 (Up) or <1/1.5 (Down) as cutoffs for differentially expressed genes. Genome browser snapshots were generated from bedGraph or tgv files using IGV genome viewer (v2.8.10) (Thorvaldsdottir et al., 2013).

TPC1 cells [2] = assay: RNA-seq transcriptome analysis (DESeq2); format: cell-based, Human; settings: for differentially expressed mRNAs versus vehicle: nutlin 10 μM, GSK2830371 25 μM, or both, 24 hours
Method: as §4, §5

p53 = assay: Western blot of p53 in thyroid carcinoma cells; format: cell-based; settings: TPC1 and K1 cells; 10 μM nutlin-3a, 25 μM GSK2830371; 24 hours
Method: as §1, with “Following” for “Protein samples were prepared with cells washed twice with PBS and lysed in modified Laemmli buffer (Laemmli, 1970) (1% w/v SDS, 10% w/v glycerol, 100 mM Tris pH 7.2, protease (complete Mini, Roche) and phosphatase (PhosSTOP, Roche) inhibitors). Following”

cell viability = assay: Cell viability after single-agent treatment; format: cell-based
ATF3 and ATF4 gene loci = assay: GRO-seq transcriptional activity at ATF3 and ATF4 gene loci; format: cell-based; settings: 60 minutes of nutlin treatment (10 μM); three different cell lines
K1 cells [3] = assay: Annexin V-FITC/PI apoptosis assay by flow cytometry; format: cell-based; settings: 10 μM nutlin-3a, 25 μM GSK2830371, or both, 72 hours
Method: as §2
(§6) The fraction of apoptotic cells was determined by Annexin V-FITC/PI assay. Briefly, cells harvested by trypsinization were resuspended in Annexin-V binding buffer (10 mM HEPES pH 7.4, 140 mM NaCl, 2.5 mM CaCl2)). Approximately 2*10^5 cells were labeled with Annexin-V-FITC (Invitrogen) and PI (10 μg/ml, Millipore-Sigma) for 15 minutes in the dark before flow cytometric analysis (Accuri C6, Becton Dickinson). To analyze mitochondrial membrane potential […] cells were trypsinized and resuspended in cultivation media. An aliquot of approximately 5*10^5 cells per sample was mixed with tetramethylrhodamine, ethyl ester, perchlorate (TMRE, Thermo Fisher, 100 nM final concentration) solution, incubated for 10 minutes in the dark, and analyzed by flow cytometer.

TPC1 cells [4] = assay: as above; format: cell-based; settings: 10 μM nutlin-3a, 25 μM GSK2830371, or both, 72 hours
Method: as §2, §6

PPM1D = assay: Western blot of PPM1D expression; format: cell-based; settings: 25 μM GSK2830371; 24 hours
Method: as §1

[5] = FDR<5%, adjusted fold change>1.5

SMILES | ATF4 protein stabilization (ATF3 and ATF4) | elF2α phosphorylation (elF2α) | synergy with small molecule inhibitors of MDM2 to elicit p53-dependent cell death (diverse cell types) | animal survival (Kaplan Meier; humane endpoint tumor size>1000 mm^3) (HCT116 xenograft tumors; oral gavage) | tumor growth (HCT116 xenograft tumors; oral gavage once daily, 5 days a week) | polysome/monosome ratio (TPC1 and HCT116) | caspase 3 cleavage / activation (caspase 3) | ATF3 induction at the mRNA level (ATF3 and ATF4 mRNA) | ATF4 induction at the mRNA level (ATF3 and ATF4 mRNA) | genes induced by both nutlin and nutlin+GSK2830371 (K1 cells [1]; [5]) [genes] | differentially expressed mRNAs versus vehicle (K1 cells [1]) | genes induced by both nutlin and nutlin+GSK2830371 (TPC1 cells [2]; [5]) [genes] | differentially expressed mRNAs versus vehicle (TPC1 cells [2]) | p53 stabilization (p53) | effects on cell viability when administered alone (cell viability) | transactivation of ATF3 (GRO-seq) (ATF3 and ATF4 gene loci) | transactivation of ATF4 (GRO-seq) (ATF3 and ATF4 gene loci) | apoptosis (Annexin V-FITC/PI) (K1 cells [3]) | apoptosis (Annexin V-FITC/PI) (TPC1 cells [4]) | PPM1D expression (PPM1D)
Cc1c(O)cccc1C(=O)N[C@@H](CSc1ccccc1)[C@H](O)CN1C[C@H]2CCCC[C@H]2C[C@H]1C(=O)NC(C)(C)C [nelfinavir] | stabilized ATF4 | induced elF2α phosphorylation | synergize with small molecule inhibitors of MDM2 to elicit p53-dependent cell death | had to be sacrificed at the humane endpoint | Tumors continued to grow | decreased the polysome/monosome ratio | did not induced caspase 3 cleavage |  |  |  |  |  |  |  |  |  |  |  |  | 
O=C(/C=C/c1ccccc1)NC(NC(=S)Nc1ccc(Cl)cc1)C(Cl)(Cl)Cl (centres unmarked) [sal003] |  |  | synergize with small molecule inhibitors of MDM2 to elicit p53-dependent cell death |  |  |  |  |  |  |  |  |  |  |  |  |  |  |  |  | 
COc1ccc(C2=N[C@@H](c3ccc(Cl)cc3)[C@@H](c3ccc(Cl)cc3)N2C(=O)N2CCNC(=O)C2)c(OC(C)C)c1 [nutlin-3a] |  |  |  |  |  | decreases in the polysome/monosome ratio |  | clear induction of ATF3 | not ATF4 | 367 | hundreds of mRNAs significantly upregulated or downregulated | 1924 | hundreds of mRNAs significantly upregulated or downregulated | stabilizes p53 | limited effects on cell viability | rapid transactivation of ATF3 | not ATF4 | does not cause p53-dependent apoptosis | does not cause p53-dependent apoptosis | 
Cc1ncc(Cl)cc1NCc1ccc(C(=O)N[C@@H](CC2CCCC2)C(=O)NC2CC2)s1 [GSK2830371] |  |  |  |  |  | decreases in the polysome/monosome ratio |  |  |  |  | had little impact on the transcriptome |  | had little impact on the transcriptome | does not stabilize p53 | limited effects on cell viability |  |  | does not stabilize p53 or induce apoptosis | does not stabilize p53 or induce apoptosis | reduces PPM1D expression
